From PubChem BioAssay AID248 (DTP/NCI, 2004)
Several values for one entry are separate records, joined by “and”; a condition that tells them apart may be missing. Identical values can stand only once. Inconclusive results and toxic doses are left out. Cut-off read from the data, not from the text of the source: active = T/C of 150% or more; inactive = T/C below 125%.

System: L1210 leukemia ip in BDF1 mice, survival T/C
Assay: NCI In Vivo Anticancer Drug Screen. Data for tumor model L1210 Leukemia (intraperitoneal) in B6D2F1 (BDF1) mice
Details: endpoint: mean survival time, higher = longer survival
In short: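 Antitumor effect is assessed in tumor-bearing animals. Survival in the compound arm is compared with a vehicle-dosed control arm and expressed as their quotient.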

[1] = dose: 100.0 mg/kg/injection, schedule: Q01DX001 (ip), vehicle: saline
[2] = dose: 200.0 mg/kg/injection, schedule: Q01DX001 (ip), vehicle: saline
[3] = dose: 400.0 mg/kg/injection, schedule: Q01DX001 (ip), vehicle: saline
[4] = dose: 400.0 mg/kg/injection, schedule: Q04DX002 (ip), vehicle: saline with Tween-80
[5] = dose: 100.0 mg/kg/injection, schedule: Q04DX003 (ip), vehicle: saline
[6] = dose: 200.0 mg/kg/injection, schedule: Q04DX003 (ip), vehicle: saline
[7] = dose: 400.0 mg/kg/injection, schedule: Q04DX003 (ip), vehicle: saline
[8] = dose: 100.0 mg/kg/injection, schedule: Q01DX001 (ip), vehicle: carboxymethylcellulose (CMC)
[9] = dose: 200.0 mg/kg/injection, schedule: Q01DX001 (ip), vehicle: carboxymethylcellulose (CMC)
[10] = dose: 400.0 mg/kg/injection, schedule: Q01DX001 (ip), vehicle: carboxymethylcellulose (CMC)
[11] = dose: 100.0 mg/kg/injection, schedule: Q01DX009 (ip), vehicle: Klucel (hydroxypropylcellulose) (HPC)
[12] = dose: 200.0 mg/kg/injection, schedule: Q01DX009 (ip), vehicle: Klucel (hydroxypropylcellulose) (HPC)
[13] = dose: 100.0 mg/kg/injection, schedule: Q01DX001 (ip), vehicle: other
[14] = dose: 400.0 mg/kg/injection, schedule: Q01DX001 (ip), vehicle: other
[15] = dose: 100.0 mg/kg/injection, schedule: Q01DX009 (ip), vehicle: saline with Tween-80
[16] = dose: 200.0 mg/kg/injection, schedule: Q01DX009 (ip), vehicle: saline with Tween-80
[17] = dose: 400.0 mg/kg/injection, schedule: Q01DX009 (ip), vehicle: saline with Tween-80
[18] = dose: 100.0 mg/kg/injection, schedule: Q04DX003 (ip), vehicle: saline with Tween-80
[19] = dose: 200.0 mg/kg/injection, schedule: Q04DX003 (ip), vehicle: saline with Tween-80
[20] = dose: 100.0 mg/kg/injection, schedule: Q01DX001 (ip), vehicle: Klucel (hydroxypropylcellulose) (HPC)
[21] = dose: 50.0 mg/kg/injection, schedule: Q01DX009 (ip), vehicle: Klucel (hydroxypropylcellulose) (HPC)

Measured: T/C

CC(C)(C)C1COP(=O)(C(C)(C)C)OC1 (stereo unspecified)
inactive: dose: 12.5 mg/kg/injection, schedule: Q04DX003 (ip), vehicle: Klucel (hydroxypropylcellulose) (HPC) 94 % of control | dose: 25.0 mg/kg/injection, schedule: Q04DX003 (ip), vehicle: Klucel (hydroxypropylcellulose) (HPC) 96 % of control

O=C1C(c2c[nH]c3ccc(Br)cc23)=Nc2ccc(Br)cc21
inactive: [1] 102 % of control | [2] 100 % of control | [3] 105 % of control

c1ccc(C(c2ccccc2)(c2ccccc2)c2ccc(Nc3ccc(C(c4ccccc4)(c4ccccc4)c4ccccc4)cc3)cc2)cc1
inactive: dose: 25.6 mg/kg/injection, schedule: Q04DX002 (ip), vehicle: saline with Tween-80 87 % of control | dose: 64.0 mg/kg/injection, schedule: Q04DX002 (ip), vehicle: saline with Tween-80 91 % of control | dose: 160.0 mg/kg/injection, schedule: Q04DX002 (ip), vehicle: saline with Tween-80 97 % of control | [4] 97 % of control

Cc1[nH]c(=O)[nH]c(=O)c1N(CCO)CCF
inactive: [5] 98 % of control | [6] 101 % of control | [7] 97 % of control

CC1(C)OC2C(=O)C3COC(O3)C2O1 (stereo unspecified)
inactive: [8] 106 % of control | [9] 106 % of control | [10] 103 % of control

CCc1ccccc1NC(=O)Sc1ccccc1C
inactive: [11] 90 % of control | dose: 100.0 mg/kg/injection, schedule: Q04DX003 (ip), vehicle: Klucel (hydroxypropylcellulose) (HPC) 110 % of control | [12] 87 % of control | dose: 200.0 mg/kg/injection, schedule: Q04DX003 (ip), vehicle: Klucel (hydroxypropylcellulose) (HPC) 102 % of control | dose: 400.0 mg/kg/injection, schedule: Q04DX003 (ip), vehicle: Klucel (hydroxypropylcellulose) (HPC) 100 % of control

CCCCCCCCCCSS(=O)(=O)O
inactive: [13] 98 % of control | [14] 86 % of control

COC(C#N)C(O)(c1ccccc1)c1ccccc1 (stereo unspecified)
inactive: dose: 75.0 mg/kg/injection, schedule: Q01DX001 (ip), vehicle: other 94 % of control | dose: 150.0 mg/kg/injection, schedule: Q01DX001 (ip), vehicle: other 100 % of control

Cc1scc[n+]1C
inactive: dose: 75.0 mg/kg/injection, schedule: Q01DX001 (ip), vehicle: saline 104 % of control | dose: 150.0 mg/kg/injection, schedule: Q01DX001 (ip), vehicle: saline 102 % of control | dose: 300.0 mg/kg/injection, schedule: Q01DX001 (ip), vehicle: saline 107 % of control

COc1ccc(OC)c(NC(=O)Nc2cc(OC)ccc2OC)c1
inactive: [15] 106 % of control | [16] 97 % of control | [17] 94 % of control

CC(C)(C)[N+](Cc1ccccc1)(Cc1ccccc1)Cc1ccccc1
inactive: [18] 100 % of control | [19] 100 % of control | dose: 400.0 mg/kg/injection, schedule: Q04DX003 (ip), vehicle: saline with Tween-80 104 % of control

CCCCC(CCCCCC(CCCC)C1NC(C)Cc2cc(OC)c(OC)cc21)C1NC(C)Cc2cc(OC)c(OC)cc21 (stereo unspecified)
inactive: dose: 25.0 mg/kg/injection, schedule: Q01DX001 (ip), vehicle: Klucel (hydroxypropylcellulose) (HPC) 98 % of control | dose: 50.0 mg/kg/injection, schedule: Q01DX001 (ip), vehicle: Klucel (hydroxypropylcellulose) (HPC) 105 % of control | [20] 90 % of control and 91 % of control

NC(=S)N/N=C/c1c(Cl)n(C(=O)c2ccccc2Cl)c2ccccc12
inactive: dose: 50.0 mg/kg/injection, schedule: Q04DX002 (ip), vehicle: Klucel (hydroxypropylcellulose) (HPC) 87 % of control | dose: 100.0 mg/kg/injection, schedule: Q04DX002 (ip), vehicle: Klucel (hydroxypropylcellulose) (HPC) 87 % of control | dose: 200.0 mg/kg/injection, schedule: Q04DX002 (ip), vehicle: Klucel (hydroxypropylcellulose) (HPC) 91 % of control

Cc1nn(C)c(N)c1N=O
inactive: [21] 102 % of control | [11] 98 % of control | [12] 102 % of control

CS(=O)(=O)OCC(O)C(O)C(O)C(O)COS(C)(=O)=O (stereo unspecified)
inactive: [8] 98 % of control | [9] 92 % of control | [10] 103 % of control

O=C(C=c1sc(=CC(=O)c2ccccc2)s1)c1ccccc1
inactive: [20] 97 % of control | dose: 200.0 mg/kg/injection, schedule: Q01DX001 (ip), vehicle: Klucel (hydroxypropylcellulose) (HPC) 97 % of control | dose: 400.0 mg/kg/injection, schedule: Q01DX001 (ip), vehicle: Klucel (hydroxypropylcellulose) (HPC) 97 % of control

CC1(C)OC(COS(C)(=O)=O)C2OC(C)(C)OC(COS(C)(=O)=O)C2O1 (stereo unspecified)
inactive: [8] 104 % of control | [9] 101 % of control | [10] 104 % of control

COC(=O)C(C)CSP(=S)(Oc1ccccc1)Oc1ccccc1 (stereo unspecified)
inactive: dose: 100.0 mg/kg/injection, schedule: Q04DX002 (ip), vehicle: saline with Tween-80 105 % of control | dose: 200.0 mg/kg/injection, schedule: Q04DX002 (ip), vehicle: saline with Tween-80 105 % of control | [4] 102 % of control

Cn1c(=O)cc(CC(=O)O)c2ccccc21
inactive: [13] 95 % of control | dose: 200.0 mg/kg/injection, schedule: Q01DX001 (ip), vehicle: other 95 % of control | [14] 98 % of control

CC(C#N)NC(=O)NC(C)C(N)=O (stereo unspecified)
inactive: [1] 107 % of control | [2] 107 % of control | [3] 97 % of control

CSC(N(C)C)=[N+](C)C
inactive: dose: 15.0 mg/kg/injection, schedule: Q01DX Z (ip), vehicle: methylcellulose (MC) 101 % of control | dose: 30.0 mg/kg/injection, schedule: Q01DX Z (ip), vehicle: methylcellulose (MC) 105 % of control | dose: 60.0 mg/kg/injection, schedule: Q01DX Z (ip), vehicle: methylcellulose (MC) 105 % of control | dose: 60.0 mg/kg/injection, schedule: Q01DX Z (oral), vehicle: methylcellulose (MC) 95 % of control | [18] 100 % of control | dose: 120.0 mg/kg/injection, schedule: Q01DX Z (ip), vehicle: methylcellulose (MC) 103 % of control | dose: 120.0 mg/kg/injection, schedule: Q01DX Z (oral), vehicle: methylcellulose (MC) 97 % of control | [19] 107 % of control

CCSCCC(N)C(=O)O (stereo unspecified)
inactive: dose: 10.25 mg/kg/injection, schedule: Q01DX Z (ip), vehicle: carboxymethylcellulose (CMC) 97 % of control | dose: 18.75 mg/kg/injection, schedule: Q01DX Z (ip), vehicle: carboxymethylcellulose (CMC) 91 % of control | dose: 20.5 mg/kg/injection, schedule: Q01DX Z (ip), vehicle: carboxymethylcellulose (CMC) 113 % of control | dose: 37.5 mg/kg/injection, schedule: Q01DX Z (ip), vehicle: carboxymethylcellulose (CMC) 93 % of control | dose: 41.0 mg/kg/injection, schedule: Q01DX Z (ip), vehicle: carboxymethylcellulose (CMC) 103 % of control | dose: 75.0 mg/kg/injection, schedule: Q01DX Z (ip), vehicle: carboxymethylcellulose (CMC) 96 % of control | dose: 82.0 mg/kg/injection, schedule: Q01DX Z (ip), vehicle: carboxymethylcellulose (CMC) 103 % of control | [8] 102 % of control | dose: 150.0 mg/kg/injection, schedule: Q01DX Z (ip), vehicle: carboxymethylcellulose (CMC) 100 % of control | [9] 107 % of control | [10] 95 % of control

O=S(=O)(CCCCl)N1CCOCC1
inactive: [1] 102 % of control | [5] 97 % of control | [2] 106 % of control | [6] 106 % of control | [3] 100 % of control | [7] 95 % of control

C[N+](C)(C)c1ccc(N=C=S)cc1
inactive: dose: 12.5 mg/kg/injection, schedule: Q01DX009 (ip), vehicle: Klucel (hydroxypropylcellulose) (HPC) 94 % of control | dose: 25.0 mg/kg/injection, schedule: Q01DX009 (ip), vehicle: Klucel (hydroxypropylcellulose) (HPC) 105 % of control | [21] 103 % of control

O=[N+]([O-])c1ccccc1O
inactive: [15] 98 % of control | [16] 107 % of control | [17] 100 % of control
